# Assay results reported in patent publication US20030087906A1, “NITROGEN SUBSTITUTED BIARYL PURINE DERIVATIVES AS POTENT ANTIPROLIFERATIVE AGENTS” (priority 2001, published 2003).
# Tested on: implanted tumors
# Experiment: Efficacy study: delay in growth of implanted tumors, regressions, tumor-free survivors
# Format: in vivo, athymic mice
# Protocol: The following data in Table 9 summarize the in vivo properties of several compounds of the current invention. The protocol for the experiment is as follows. The dose-range finding study consists of four groups of three athymic mice each (four dose levels.) The compound is administered on the basis of individual animal body weight. The route is intraperitoneal (IP) and the treatment schedule is daily for 14 days (qd×14) or once every 4 days for 12 days (q4d×3).
# The efficacy study consists of three compound-treated groups (six mice/group), a positive control-treated group (six mice), and a vehicle-treated control group of 12 mice. Test compounds were administered IP under the treatment schedules listed above (qd×14 or q4d×3), whereas the positive control agent (Taxol) was administered intravenously (IV) at a dosage level of 15 mg/kg/dose for five consecutive days (qd×5). All agents were administered on the basis of individual animal body weight. Treatment began when the implanted tumors were approximately 100 mg in size (range of 65 to 200 mg). The mice were observed daily for survival. Each tumor was measured by caliper in two dimensions and converted to tumor mass using the formula for a prolate ellipsoid (a×b^2/2) and assuming unit density. Tumor measurements and animal body weights were recorded twice weekly. Antitumor activity was assessed by the delay in tumor growth of the treated groups in comparison to the vehicle-treated control group, partial and complete regressions, and tumor-free survivors.
compound,measurement,setting,value
CC(C)n1cnc2c(NCc3ccc(-c4ccsc4)cc3)nc(N[C@H]3CC[C@H](N)CC3)nc21 [Compound 12],T-C,0.27 mg/kg IP q4d × 3,1.2 days
same,Tumor free/total,0.27 mg/kg IP q4d × 3,0/6
same,T-C,0.4 mg/kg IP q4d × 3,0.2 days
same,Tumor free/total,0.4 mg/kg IP q4d × 3,0/6
same,T-C,0.6 mg/kg IP q4d × 3,0.3 days
same,Tumor free/total,0.6 mg/kg IP q4d × 3,0/6
